# In US20170280720A1, “ARGININE […] INHIBITORS AND USES THEREOF” (EPIZYME, INC., priority 2014, published 2017):
# How the values were obtained:
# [1] = system: asymmetric di-methyl PABP1 in RKO cells; experiment: In Cell Western (ICW) for asymmetric di-methyl PABP1 and DNA content in RKO cells; format: cell-based; details: Homo sapiens, RKO, In Cell Western
# Text: RKO adherent cells were purchased from ATCC (American Type Culture Collection), Manassas, Va., USA. DMEM/Glutamax medium, penicillin-streptomycin, heat inactivated fetal bovine serum, 0.05% trypsin and D-PBS were purchased from Life Technologies, Grand Island, N.Y., USA. Odyssey blocking buffer, 800CW goat anti-rabbit IgG (H+L) antibody, and Licor Odyssey infrared scanner were purchased from Licor Biosciences, Lincoln, Nebr., USA. Mono-methyl arginine antibody was purchased from Cell Signaling Technology, Danvers, Mass., USA. Methanol was purchased from VWR, Franklin, Mass., USA. 10% Tween 20 was purchased from KPL, Inc., Gaithersburg, Md., USA. […] was purchased from Biostatus Limited, Leicestershire, UK. RKO adherent cells were maintained in growth medium (DMEM/Glutamax medium supplemented with 10% v/v heat inactivated fetal bovine serum and 100 units/mL penicillin-streptomycin) and cultured at 37° C. under 5% CO2. Cell Treatment, in Cell Western (ICW) for Detection of Asymmetric Di-Methyl PABP1 and DNA Content. RKO cells were seeded in assay medium at a concentration of 30,000 cells per mL to a poly-D-lysine coated 384 well culture plate (BD Biosciences 356697) with 50 μL per well. Compound (100 nL) from a 96-well source plate was added directly to 384 well cell plate. Plates were incubated at 37° C., 5% CO2 for 48 hours. After two days of incubation, plates were brought to room temperature outside of the incubator for ten minutes and blotted on paper towels to remove cell media. Cells were fixed for 20 minutes at room temperature by adding 50 μl of 8% PFA followed by aspiration of supernatant with the Biotek EL406 plate washer. Cells were then permeabilized by addition of 50 μL of ice cold 100% methanol directly to each well and incubated for 30 min at room temperature. After 30 min, plates were transferred to a Biotek EL406 plate washer and washed 2 times with 100 μL per well of wash buffer (1×PBS). Next 60 μL per well of Odyssey blocking buffer (Odyssey Buffer with 0.1% Tween 20 (v/v)) were added to each plate and incubated 1 hour at room temperature. Blocking buffer was removed and 20 μL per well of primary antibody was added (asymmetric-methyl PABP1) diluted 1:400 in Odyssey buffer with 0.1% Tween 20 (v/v)) and plates were incubated overnight (16 hours) at 4° C. Plates were washed 5 times with 100 μL per well of wash buffer. Next 20 μL per well of secondary antibody was added (1:800 800CW goat anti-rabbit IgG (H+L) antibody, 1:2000 DRAQS in Odyssey buffer with 0.1% Tween 20 (v/v)) and incubated for 1 hour at room temperature. The plates were washed 5 times with 100 μL per well wash buffer then 2 times with 100 μL per well of water. Plates were allowed to dry at room temperature then imaged on the Licor Odyssey machine which measures integrated intensity at 700 nm and 800 nm wavelengths. Both 700 and 800 channels were scanned. Calculations: First, the ratio for each well was determined by: Each plate included fourteen control wells of DMSO only treatment (minimum inhibition) as well as fourteen control wells for maximum inhibition treated with 20 μM of a reference compound. The average of the ratio values for each control type was calculated and used to determine the percent activation for each test well in the plate. Reference compound was serially diluted three-fold in DMSO for a total of nine test concentrations, beginning at 20 μM. Percent inhibition was determined and IC50 curves were generated using triplicate wells per concentration of compound.
# Human CARM1 (PRMT4) = biological target: T1, Human CARM1 (PRMT4) (Homo sapiens, UniProt Q86X55); experiment: CARM1 biochemical assay (3H-SAM Flashplate, peptide substrate); details: read-out: CARM1_ IC50
# T1 construct: Flag-CARM1-His; made in house; host or cells: HEK 293F cells (BacMam baculovirus, pFastBacMam)
# T1 sequence (Q86X55 2-585 isoform Q86X55-1): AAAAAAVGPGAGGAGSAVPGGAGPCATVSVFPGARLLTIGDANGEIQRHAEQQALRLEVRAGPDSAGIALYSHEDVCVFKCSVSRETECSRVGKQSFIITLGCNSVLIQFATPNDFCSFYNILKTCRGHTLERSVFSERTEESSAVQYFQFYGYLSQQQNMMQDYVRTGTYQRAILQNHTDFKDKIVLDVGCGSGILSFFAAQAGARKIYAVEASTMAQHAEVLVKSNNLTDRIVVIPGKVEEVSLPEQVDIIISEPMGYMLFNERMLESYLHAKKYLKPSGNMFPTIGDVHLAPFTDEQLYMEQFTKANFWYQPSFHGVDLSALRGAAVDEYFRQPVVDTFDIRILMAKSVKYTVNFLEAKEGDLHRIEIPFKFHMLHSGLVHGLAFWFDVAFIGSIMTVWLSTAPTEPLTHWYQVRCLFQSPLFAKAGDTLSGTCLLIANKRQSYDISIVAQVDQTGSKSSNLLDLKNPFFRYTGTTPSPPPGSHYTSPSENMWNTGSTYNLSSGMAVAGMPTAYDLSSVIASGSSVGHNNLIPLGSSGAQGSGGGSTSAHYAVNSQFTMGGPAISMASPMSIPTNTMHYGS
# Procedure, shortened: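 FLAG/His-tagged human CARM1 (isoform 1, Δ539-561, baculovirus-expressed), 0.25 nM, preincubated 30 min at room temperature with compound (2% DMSO) in 20 mM Bicine pH 7.6, then reacted with 30 nM 3H-SAM and 250 nM biotinylated H3 16-30 peptide (R26 monomethyl). Stopped with 300 uM cold SAM; labelled peptide captured on streptavidin Flashplate; % inhibition versus DMSO and 1 mM SAH controls fitted to a 4- or 3-parameter curve.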
Compound,IC50 [1],IC50 (Human CARM1 (PRMT4))
CNCCN(C)Cc1cccc(-c2nc(NC3CCOCC3)c3cnn(C4CC4)c3n2)c1 [Compound 179],4870 nM,8.88 nM
CC(C)n1ncc2c(C(=O)NCc3cncn3C)cc(-c3cccc(CN(C)CCN)c3)nc21 [Compound 185],10800 nM,11.7 nM
CNCCN(C)Cc1cccc(-c2cc(OC3CCOCC3)c3cnn(C(C)C)c3n2)c1 [Compound 187],6090 nM,12 nM
CNCCN(C)Cc1cccc(-c2cc(C3=CCOCC3)c3cnn(C(C)C)c3n2)c1 [Compound 188],8310 nM,12.3 nM
CNCCN(C)Cc1cccc(-c2cc(NC(=O)OC)c3cnn(C(C)C)c3n2)c1 [Compound 190],2460 nM,12.5 nM
CC(C)n1ncc2c(-c3ccco3)cc(-c3cccc(CN(C)CCN)c3)nc21 [Compound 198],20000 nM,15.1 nM
CNCCN(C)Cc1cccc(-c2cc(C(=O)NCc3cccnc3)c3cnn(C(C)C)c3n2)c1 [Compound 199],2180 nM,15.9 nM
CC(C)n1ncc2c(C(=O)N3CCC3)cc(-c3cccc(CN(C)CCN)c3)nc21 [Compound 201],3050 nM,18.2 nM
CCOC(=O)Nc1cc(-c2cccc(CN(C)CCNC)c2)nc2c1cnn2C(C)C [Compound 205],5750 nM,19.6 nM
CC(C)n1ncc2c(C(=O)NCc3cnc[nH]3)cc(-c3cccc(CN(C)CCN)c3)nc21 [Compound 206],20000 nM,19.7 nM
CN(CCN)Cc1cccc(-c2cc(C(=O)NCC3CCOCC3)cc(N(C)CC3CC3)c2)c1 [Compound 208],5540 nM,20.7 nM
CNCCN(C)Cc1cccc(-c2cc(-c3ccco3)c3cnn(C(C)C)c3n2)c1 [Compound 209],20000 nM,21.7 nM
CCN(Cc1cccnc1)C(=O)c1cc(-c2cccc(CN(C)CCN)c2)nc2c1cnn2C(C)C [Compound 211],3250 nM,23.9 nM
CNCCN(C)Cc1cccc(-c2cc(N3CCCC3)c3cnn(C(C)C)c3n2)c1 [Compound 214],20000 nM,26.6 nM
CC(C)n1ncc2c(C(=O)NCc3nccn3C)cc(-c3cccc(CN(C)CCN)c3)nc21 [Compound 215],2240 nM,29.1 nM
CN(CCN)Cc1cccc(-c2cc(C(=O)NC3CCOCC3)cc(N(C)CC3CC3)c2)c1 [Compound 217],5690 nM,30 nM
CC(C)n1ncc2c(C(=O)NCC(F)(F)F)cc(-c3cccc(CN(C)CCN)c3)nc21 [Compound 222],3820 nM,34.4 nM
CNCCN(C)Cc1cccc(-c2cc(C(=O)NCc3cn(C)cn3)c3cnn(C(C)C)c3n2)c1 [Compound 223],3470 nM,35.3 nM
CC(C)n1ncc2c(C(=O)N(C)Cc3cccnc3)cc(-c3cccc(CN(C)CCN)c3)nc21 [Compound 224],8470 nM,37.5 nM
CCn1ncc2c(C(=O)NCC3CCOCC3)cc(-c3cccc(CN(C)CCNC)c3)nc21 [Compound 227],4740 nM,39.9 nM
CCN(C)C(=O)c1cc(-c2cccc(CN(C)CCN)c2)nc2c1cnn2C(C)C [Compound 230],7630 nM,41.4 nM
CNCCN(C)Cc1cccc(-c2cc(C(=O)NCc3cnc[nH]3)c3cnn(C(C)C)c3n2)c1 [Compound 231],20000 nM,42.2 nM
CNCCN(C)Cc1cccc(-c2cc(C(=O)NC3CCOC3)c3cnn(C(C)C)c3n2)c1 (stereo not shown) [Compound 234],2760 nM,43.3 nM
CNCCN(C)Cc1cccc(-c2cc(-c3ccsc3)c3cnn(C(C)C)c3n2)c1 [Compound 235],20000 nM,45.8 nM
CC(C)n1ncc2c(C(=O)N(C)Cc3ccccc3)cc(-c3cccc(CNCCN)c3)nc21 [Compound 238],20000 nM,48.1 nM
CCCc1cc(-c2cccc(CN(C)CCNC)c2)nc2c1cnn2C(C)C [Compound 239],20000 nM,49 nM

# Stronger by IC50 [1], values ahead:
IC50 [1],IC50 (Human CARM1 (PRMT4)),Compound
2000 nM,22.4 nM,CC(C)n1ncc2c(C(=O)NC3CC3)cc(-c3cccc(CN(C)CCN)c3)nc21 [Compound 210]
1990 nM,19.1 nM,CC(C)n1ncc2c(C(=O)NC3CCOC3)cc(-c3cccc(CN(C)CCN)c3)nc21 (stereo not shown) [Compound 202]
1970 nM,11.6 nM,Cc1c(CNC(=O)c2cc(-c3cccc(CN(C)CCN)c3)nc3c2cnn3C(C)C)cnn1C [Compound 183]
1910 nM,41.2 nM,CNCCN(C)Cc1cccc(-c2cc(C(=O)NC3CC3)c3cnn(C(C)C)c3n2)c1 [Compound 228]
1890 nM,12.4 nM,CC(C)n1ncc2c(C(=O)NCc3nccs3)cc(-c3cccc(CN(C)CCN)c3)nc21 [Compound 189]
1800 nM,24.9 nM,CNCCN(C)Cc1cccc(-c2cc(C(=O)NCc3nccn3C)c3cnn(C(C)C)c3n2)c1 [Compound 212]
1660 nM,15 nM,CC(C)n1ncc2c(C(=O)NCc3cccc4ccnn34)cc(-c3cccc(CN(C)CCN)c3)nc21 [Compound 197]
1660 nM,13.9 nM,CC(C)n1ncc2c(C(=O)NCc3cccnc3)cc(-c3cccc(CN(C)CCN)c3)nc21 [Compound 195]
1640 nM,20.6 nM,CNCCN(C)Cc1cccc(-c2cc(C(=O)NCc3nccs3)c3cnn(C(C)C)c3n2)c1 [Compound 207]
1510 nM,42.4 nM,CNCCN(C)Cc1cccc(-c2cc(C(=O)NCc3cccc4ccnn34)c3cnn(C(C)C)c3n2)c1 [Compound 232]
1240 nM,32.5 nM,CC(C)n1ncc2c(C(=O)NCc3ccn(C)n3)cc(-c3cccc(CN(C)CCN)c3)nc21 [Compound 220]
1200 nM,13.6 nM,CC(C)n1ncc2c(C(=O)NCc3cnc4ccccn34)cc(-c3cccc(CN(C)CCN)c3)nc21 [Compound 194]
865 nM,7.29 nM,CNCCN(C)Cc1cccc(-c2cc(C(=O)NCc3cnc4ccccn34)c3cnn(C(C)C)c3n2)c1 [Compound 176]
843 nM,42.6 nM,"CNCCN(C)Cc1cccc(-c2cc(C(=O)NC3CCOCC3)c3cnn(C(C)C)c3n2)c1 [Compound 233, 1-isopropyl-6-(3-((methyl(2-(methylamino)ethyl)amino)methyl)phenyl)-N-(tetrahydro-2H-pyran-4-yl)-1H-pyrazolo[3,4-b]pyridine-4-carboxamide]"
733 nM,9.63 nM,CNCCN(C)Cc1cccc(-c2cc(C(=O)NCc3cn4cccc(C)c4n3)c3cnn(C(C)C)c3n2)c1 [Compound 181]
